In patent publication EP0623131B1 (ANGELINI RICERCHE S.p.A. SOCIETA' CONSORTILE, priority 1992, dated 1993):

Test: DL50 (acute lethal dose)
Settings: species, route and unit not given

Row | SMILES | DL₅₀
1 | CC1CN(c2cccc(Cl)c2)CCN1CCCn1nc2ccccn2c1=O (centres unmarked) [(I) R=R'=R'''=H; R"=CH₃, 2-[3-[4-(3-chlorophenyl)-1-(2-methyl)-piperazinyl]-propyl]-1,2,4-triazole-[4,3-a]-pyridin-3(2H)-one] | 300
2 | CC(CCn1nc2ccccn2c1=O)N1CCN(c2cccc(Cl)c2)CC1 (centres unmarked) [(I) R=R"=R'''=H; R'=CH₃, 2-[3-[4-(3-chlorophenyl)-1-piperazinyl]-3-methylpropyl]-1,2,4-triazole-[4,3-a]-pyridin-3(2H)-one] | ≤ 300
3 | CC1CN(CCCn2nc3ccccn3c2=O)CCN1c1cccc(Cl)c1 (centres unmarked) [(I) R=R'=R"=H; R'''=CH₃, 2-[3-[4-(3-chlorophenyl)-1-(3-methyl)-piperazinyl]-propyl]-1,2,4-triazole-[4,3-a]-pyridin-3(2H)-one] | ≤ 600
4 | CC(CN1CCN(c2cccc(Cl)c2)CC1)Cn1nc2ccccn2c1=O (centres unmarked) [(I) R'=R"=R'''=H; R=CH₃, 2-[3-[4-(3-chlorophenyl)-1-piperazinyl]-2-methylpropyl]-1,2,4-triazole[4,3-a]-pyridin-3-(2H)-one] | ≤ 600
5 | O=c1n(CCCN2CCN(c3cccc(Cl)c3)CC2)nc2ccccn12 [trazodone, Trazodone, reference compound] | ≥ 200
